Test results taken from ChEMBL document CHEMBL1201862, “PubChem BioAssay data set” (2004).
Activity calls are given as the source filed them.

Experiments:
SUMO E1/E2 = SUMO E1/E2 (Homo sapiens, UniProt P63279+Q9UBE0+Q9UBT2); assay: SAR analysis of SUMOylation using HTRF in an in-Vitro dose response assay. [Related pubchem assays (depositor defined):AID2006, AID2011, AID2018, AID2069, AID2658]; format: functional
[1] = biological target: T1, Voltage-gated N-type calcium channel alpha-1B subunit/Amyloid beta A4 precursor protein-binding family A member 1 (Homo sapiens, UniProt Q00975+Q02410); assay: disruptors of Mint-PDZ/N-type channel peptide interaction – biochemical, HTRF, set 2, SAR follow-up (AID 434980); format: functional
[2] = biological target: T1, Voltage-gated N-type calcium channel alpha-1B subunit/Amyloid beta A4 precursor protein-binding family A member 1; assay: disruptors of Mint-PDZ/N-type channel peptide interaction – biochemical, HTRF, SAR follow-up (AID 2489); format: functional
[3] = biological target: G-protein coupled receptor 55 (Homo sapiens, UniProt Q9Y2T6); assay: GPR55 agonists via beta-arrestin recruitment, primary screen, imaging, U2OS cells, beta-arrestin-GFP redistribution (AID 1961); format: functional
Neutrophil collagenase = Neutrophil collagenase (Homo sapiens, UniProt P22894); assay: MMP13 inhibition and MMP selectivity, late-stage follow-up, selectivity assay for MMP13 inhibitor project, biochemical, probe development, late stage results, panel member MMP-8 [IC50 Assay] (AID 2067)
J774.A1 = assay: Confirmation of image-based Screening Assay for Inhibitors of Phagocytosis. [Related pubchem assays (depositor defined):AID1029, AID1643]; format: functional, cell-based; details: Mus musculus
[4] = cytotoxicity in HEK-293T cells, dose response, cytotoxicity control for TCR NF-kB inhibitor project, luminescence, T-cell screen hits (AID 489026); format: functional, cell-based;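 further: cells exposed to compound about 14 hours before the viability readout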
SUMO-activating enzyme [5] = biological target: T2, SUMO-activating enzyme (Homo sapiens, UniProt Q9UBT2); assay: SUMOylation inhibitor hit validation, confirmation, SUMOylation inhibitor project, biochemical, AlphaScreen (AID 2018); format: functional
SUMO-activating enzyme [6] = biological target: T2, SUMO-activating enzyme; assay: inhibitors of in vitro SUMOylation cascade, primary screen, biochemical, HTRF, uHTS (AID 2006); format: protein-complex assay
[7] = Luminescence Cell-Based Dose Retest to Confirm Inhibitors of Cancer Stem Cells. [Related pubchem assays (depositor defined):AID2717, AID2721]; format: functional; details: Homo sapiens
[8] = biological target: C-C chemokine receptor type 6 (Homo sapiens, UniProt P51684); assay: CCR6 receptor antagonists, dose response, cell-based, luminescent beta-arrestin readout (AID 504728); format: functional
Beta-galactosidase = Beta-galactosidase (Escherichia coli, UniProt Q8VNN2); assay: beta-galactosidase enzyme inhibitors and activators, dose response, artefact control for CCR6 antagonist project, biochemical, E. coli enzyme, set 3 (AID 504712); format: functional
[9] = biological target: Neurotensin receptor type 1 (Homo sapiens, UniProt P30989); format: functional;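 further: Image-based confirmatory dose-response assay measuring agonist activity at NTR1; NTR1-expressing U2OS osteosarcoma cells imaged for beta-arrestin GFP spot formation; agonist potency where compounds increase beta-arrestin recruitment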
[10] = biological target: T3, Type-1 angiotensin II receptor (Homo sapiens, UniProt P30556); assay: AT1 receptor agonists, dose response, selectivity assay for APJ receptor agonist project, cell-based, uHTS hits (AID 488865); format: functional;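 further: beta-arrestin recruitment to AT1 measured by enzyme fragment complementation luminescence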
T3 sequence (P30556 whole entry): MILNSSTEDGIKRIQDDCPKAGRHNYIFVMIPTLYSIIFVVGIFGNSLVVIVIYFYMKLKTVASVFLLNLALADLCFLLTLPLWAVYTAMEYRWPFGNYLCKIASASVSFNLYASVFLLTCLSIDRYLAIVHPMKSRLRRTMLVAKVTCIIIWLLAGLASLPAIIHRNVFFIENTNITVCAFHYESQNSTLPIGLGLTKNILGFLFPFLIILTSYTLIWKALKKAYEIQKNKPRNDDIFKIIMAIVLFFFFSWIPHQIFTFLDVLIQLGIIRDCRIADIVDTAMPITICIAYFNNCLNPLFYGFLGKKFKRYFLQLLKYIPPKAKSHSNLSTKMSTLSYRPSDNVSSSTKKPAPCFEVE

[11] = Shn3 3'UTR reporter inhibitors, dose response, cell-based, Clone20 osteoblasts, firefly luciferase, cherry-picked (AID 624132); format: functional;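 further: firefly luciferase luminescence from reporter carrying the Shn3 3'UTR in osteoblasts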
[12] = control 3'UTR Renilla luciferase suppression, dose response, counter-screen for Shn3 inhibitor project, cell-based, Clone20-Shn3RL, cherry-picked (AID 624133); format: functional
[13] = Artemis endonuclease inhibitor potency, dose response, biochemical, fluorescence intensity (AID 720701); format: functional;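 further: Artemis endonuclease enzyme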

T2 sequence (Q9UBE0 whole entry): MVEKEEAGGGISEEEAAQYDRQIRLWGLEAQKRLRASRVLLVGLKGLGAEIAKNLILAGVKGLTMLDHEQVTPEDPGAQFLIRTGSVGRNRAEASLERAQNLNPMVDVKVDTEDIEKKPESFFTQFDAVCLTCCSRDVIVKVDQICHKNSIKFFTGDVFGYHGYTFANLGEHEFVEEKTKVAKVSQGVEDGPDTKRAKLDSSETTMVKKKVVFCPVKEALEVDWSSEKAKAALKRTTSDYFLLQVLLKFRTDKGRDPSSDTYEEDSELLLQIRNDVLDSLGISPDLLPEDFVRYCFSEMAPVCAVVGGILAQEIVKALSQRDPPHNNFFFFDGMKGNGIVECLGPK
T2 sequence (Q9UBT2 whole entry): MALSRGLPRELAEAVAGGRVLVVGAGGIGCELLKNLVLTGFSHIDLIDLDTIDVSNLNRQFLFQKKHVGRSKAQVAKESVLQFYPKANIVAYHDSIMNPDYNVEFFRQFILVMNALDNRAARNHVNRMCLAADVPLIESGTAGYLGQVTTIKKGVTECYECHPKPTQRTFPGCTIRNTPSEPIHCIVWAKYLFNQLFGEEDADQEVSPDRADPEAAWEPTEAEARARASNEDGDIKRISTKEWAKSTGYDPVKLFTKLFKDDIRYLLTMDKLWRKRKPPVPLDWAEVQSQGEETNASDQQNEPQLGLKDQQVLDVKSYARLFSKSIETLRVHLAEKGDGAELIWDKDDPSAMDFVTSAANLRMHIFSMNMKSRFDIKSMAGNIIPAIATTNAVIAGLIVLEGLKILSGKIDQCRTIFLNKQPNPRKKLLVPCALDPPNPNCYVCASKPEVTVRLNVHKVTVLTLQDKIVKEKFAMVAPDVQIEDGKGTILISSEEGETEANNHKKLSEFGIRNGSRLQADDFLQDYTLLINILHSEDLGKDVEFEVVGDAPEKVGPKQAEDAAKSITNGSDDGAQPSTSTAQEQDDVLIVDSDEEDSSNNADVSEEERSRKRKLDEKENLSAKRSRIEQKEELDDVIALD
T1 sequence (Q00975 whole entry): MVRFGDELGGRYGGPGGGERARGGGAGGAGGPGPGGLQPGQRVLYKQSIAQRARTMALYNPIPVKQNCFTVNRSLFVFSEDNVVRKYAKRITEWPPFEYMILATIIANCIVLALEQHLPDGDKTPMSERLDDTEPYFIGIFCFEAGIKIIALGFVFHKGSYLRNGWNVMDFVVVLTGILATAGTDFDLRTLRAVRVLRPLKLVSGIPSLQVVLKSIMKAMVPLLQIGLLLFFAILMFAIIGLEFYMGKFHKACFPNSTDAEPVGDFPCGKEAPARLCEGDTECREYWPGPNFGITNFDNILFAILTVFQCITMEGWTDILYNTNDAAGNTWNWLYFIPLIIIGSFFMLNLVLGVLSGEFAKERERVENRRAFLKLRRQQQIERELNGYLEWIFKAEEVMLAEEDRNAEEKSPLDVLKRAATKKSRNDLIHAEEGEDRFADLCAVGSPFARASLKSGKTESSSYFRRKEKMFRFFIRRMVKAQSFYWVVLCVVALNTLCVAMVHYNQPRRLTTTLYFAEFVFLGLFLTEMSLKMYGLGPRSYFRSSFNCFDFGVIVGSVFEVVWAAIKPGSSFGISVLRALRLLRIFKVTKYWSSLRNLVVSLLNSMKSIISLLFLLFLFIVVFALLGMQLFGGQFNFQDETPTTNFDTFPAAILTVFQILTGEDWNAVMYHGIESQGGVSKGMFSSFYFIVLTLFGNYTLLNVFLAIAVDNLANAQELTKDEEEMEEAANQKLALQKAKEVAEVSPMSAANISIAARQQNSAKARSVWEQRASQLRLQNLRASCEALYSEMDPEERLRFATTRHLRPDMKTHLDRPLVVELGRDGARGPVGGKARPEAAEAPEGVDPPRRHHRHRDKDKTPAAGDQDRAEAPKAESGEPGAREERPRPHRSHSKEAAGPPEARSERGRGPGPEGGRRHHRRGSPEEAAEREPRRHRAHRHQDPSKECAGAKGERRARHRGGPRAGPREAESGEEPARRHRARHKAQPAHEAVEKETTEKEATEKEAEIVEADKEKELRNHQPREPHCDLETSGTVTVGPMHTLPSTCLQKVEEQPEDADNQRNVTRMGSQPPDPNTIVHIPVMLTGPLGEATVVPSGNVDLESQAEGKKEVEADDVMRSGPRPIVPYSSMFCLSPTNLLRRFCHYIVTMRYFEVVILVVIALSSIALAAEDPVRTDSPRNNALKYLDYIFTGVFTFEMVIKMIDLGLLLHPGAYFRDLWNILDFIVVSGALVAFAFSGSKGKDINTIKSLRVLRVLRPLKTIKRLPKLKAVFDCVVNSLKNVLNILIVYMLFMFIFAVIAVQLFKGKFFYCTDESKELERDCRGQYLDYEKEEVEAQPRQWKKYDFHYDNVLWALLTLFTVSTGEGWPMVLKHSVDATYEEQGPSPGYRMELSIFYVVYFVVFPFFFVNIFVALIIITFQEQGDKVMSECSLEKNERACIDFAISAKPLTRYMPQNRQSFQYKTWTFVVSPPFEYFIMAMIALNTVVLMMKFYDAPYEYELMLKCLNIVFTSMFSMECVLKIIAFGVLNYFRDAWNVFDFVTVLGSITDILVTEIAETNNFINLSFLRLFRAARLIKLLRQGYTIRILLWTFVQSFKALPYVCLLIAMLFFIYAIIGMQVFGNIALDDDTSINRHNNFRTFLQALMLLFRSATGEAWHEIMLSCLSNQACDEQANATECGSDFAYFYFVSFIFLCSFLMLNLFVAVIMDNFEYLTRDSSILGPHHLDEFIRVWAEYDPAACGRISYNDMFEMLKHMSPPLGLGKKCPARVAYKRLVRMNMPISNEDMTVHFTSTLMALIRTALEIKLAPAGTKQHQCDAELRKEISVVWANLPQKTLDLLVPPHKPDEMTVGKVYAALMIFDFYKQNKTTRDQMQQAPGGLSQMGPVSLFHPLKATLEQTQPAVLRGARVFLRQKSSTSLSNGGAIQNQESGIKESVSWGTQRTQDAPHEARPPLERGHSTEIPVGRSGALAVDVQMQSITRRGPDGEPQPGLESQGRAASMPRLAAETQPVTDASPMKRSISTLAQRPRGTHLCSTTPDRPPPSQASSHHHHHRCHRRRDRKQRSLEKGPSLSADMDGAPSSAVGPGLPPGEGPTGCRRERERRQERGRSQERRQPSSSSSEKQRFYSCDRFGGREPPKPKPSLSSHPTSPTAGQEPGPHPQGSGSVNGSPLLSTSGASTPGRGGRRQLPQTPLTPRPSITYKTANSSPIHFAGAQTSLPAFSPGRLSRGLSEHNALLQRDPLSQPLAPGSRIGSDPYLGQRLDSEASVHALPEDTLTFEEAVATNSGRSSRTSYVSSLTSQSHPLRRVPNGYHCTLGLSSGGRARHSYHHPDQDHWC
T1 sequence (Q02410 whole entry): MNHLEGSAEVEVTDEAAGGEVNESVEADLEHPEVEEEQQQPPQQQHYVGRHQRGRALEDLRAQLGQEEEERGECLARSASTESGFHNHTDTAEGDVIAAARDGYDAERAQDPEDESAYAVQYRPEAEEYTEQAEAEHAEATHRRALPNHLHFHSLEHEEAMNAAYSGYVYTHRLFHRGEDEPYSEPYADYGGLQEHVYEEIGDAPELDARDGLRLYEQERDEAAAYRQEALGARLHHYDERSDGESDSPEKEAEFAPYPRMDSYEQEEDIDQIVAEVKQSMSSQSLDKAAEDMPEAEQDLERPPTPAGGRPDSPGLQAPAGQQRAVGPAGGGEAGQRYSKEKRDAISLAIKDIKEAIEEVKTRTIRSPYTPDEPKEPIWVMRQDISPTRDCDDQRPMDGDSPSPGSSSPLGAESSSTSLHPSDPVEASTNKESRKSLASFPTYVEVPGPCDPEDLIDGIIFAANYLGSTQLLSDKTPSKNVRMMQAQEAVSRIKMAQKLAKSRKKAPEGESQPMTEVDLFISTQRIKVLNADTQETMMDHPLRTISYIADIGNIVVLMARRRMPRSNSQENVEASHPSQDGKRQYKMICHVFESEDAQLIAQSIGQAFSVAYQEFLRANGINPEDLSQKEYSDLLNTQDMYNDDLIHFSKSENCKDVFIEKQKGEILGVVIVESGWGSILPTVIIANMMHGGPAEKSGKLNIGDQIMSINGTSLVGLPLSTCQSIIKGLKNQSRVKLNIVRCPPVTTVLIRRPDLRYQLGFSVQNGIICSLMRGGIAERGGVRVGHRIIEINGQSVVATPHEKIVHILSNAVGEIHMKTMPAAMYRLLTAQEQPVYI
Sequence of C-C chemokine receptor type 6 (P51684 whole entry): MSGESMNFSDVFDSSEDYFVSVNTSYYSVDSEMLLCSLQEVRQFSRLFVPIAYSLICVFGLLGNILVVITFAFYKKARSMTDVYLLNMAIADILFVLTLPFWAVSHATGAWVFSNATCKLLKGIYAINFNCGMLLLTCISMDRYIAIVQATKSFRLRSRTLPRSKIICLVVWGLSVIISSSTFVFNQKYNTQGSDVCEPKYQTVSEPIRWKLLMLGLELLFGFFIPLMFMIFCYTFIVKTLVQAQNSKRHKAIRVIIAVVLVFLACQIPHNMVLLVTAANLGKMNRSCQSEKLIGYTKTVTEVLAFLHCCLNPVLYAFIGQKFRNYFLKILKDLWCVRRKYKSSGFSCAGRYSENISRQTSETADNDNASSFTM
Sequence of SUMO E1/E2 (Q9UBE0 whole entry): as the sequence (Q9UBE0 whole entry) above
Sequence of SUMO E1/E2 (Q9UBT2 whole entry): as the sequence (Q9UBT2 whole entry) above
Sequence of SUMO E1/E2 (P63279 whole entry): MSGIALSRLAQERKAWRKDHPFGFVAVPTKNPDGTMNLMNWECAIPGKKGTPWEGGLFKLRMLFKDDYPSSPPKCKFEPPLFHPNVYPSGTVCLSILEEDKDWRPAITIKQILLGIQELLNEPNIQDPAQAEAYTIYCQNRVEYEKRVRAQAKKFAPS

With COc1ccc(CNC(=O)COC(=O)c2cc(-c3ccc(C)o3)nc3ccccc23)cc1 the IC50 (SUMO E1/E2) was 4 µM (active), the IC50 [1] was > 56.8 µM (inactive) and the IC50 [2] was > 56.8 µM (inactive).
For CCN(CC)C(=O)CC(c1ccc2c(c1)OCO2)c1c(OC)cc(OC)c2c(-c3ccccc3)cc(=O)oc12 (configuration not stated), the EC50 [3] was 2.72 µM (active).
With O=c1[nH]c(SCCc2ccccc2)nc2c1CCC2 the IC50 (Neutrophil collagenase) was > 39.8 µM (inactive).
In the case of Cc1cccc(N2CCN(C(=O)c3ccc(CS(=O)(=O)c4ccccc4C)o3)CC2C)c1 (configuration not stated), the IC50 (J774.A1) is reported as 0.421 µM (active) and the IC50 [4] is reported as 19.5 µM (active).
In the case of CC1=NOC(=O)/C1=C\c1ccc(-c2cc(Cl)ccc2Cl)o1, the IC50 (SUMO-activating enzyme [5]) is reported as 4.89 µM (active), the IC50 (SUMO-activating enzyme [6]) is reported as 11.5 µM (active) and the AC50 [7] is reported as 1.04 µM (active). The IC50 [8] was > 66.6 µM (inactive), the IC50 (Beta-galactosidase) was > 66.6 µM (inactive) and the EC50 [9] was 7.5 µM (active). The EC50 [10] was > 100 µM (inactive), the AC50 [11] was 5.69 µM (active) and the AC50 [12] was 9.55 µM (active). The IC50 [13] was > 20 µM (inactive).
